Reference: PubChem BioAssay AID1996
Converted amounts (≈) assume the structure as drawn.

Conditions: buffer; pH 7.4; 200.0 µM

Point of comparison: N#CC1=C(N)Oc2cc(N)ccc2C1c1ccccc1Cl (stereo not given), solubility kinetic 32.9 µg/mL (≈ 110 µM). Against it:
- CCOc1ccc(C(=O)Oc2ccc(NC(C)=O)cc2)cc1 — lower, < 0.6 µg/mL
- CC1CCN(C(=O)c2ccc(-c3ccccc3Cl)o2)CC1 — 4.5-fold lower, 7.3 µg/mL (≈ 24 µM)
- O=C(c1cccc(S(=O)(=O)N2CCN(c3ccc(F)cc3)CC2)c1)N1CCCC1 — 1.9-fold higher, 61.9 µg/mL (≈ 148 µM)
- N#CCCN(Cc1cccnc1)C(=S)NC1CC2C=CC1C2 (stereo not given) — higher, > 46.9 µg/mL
- Oc1ccc(Cl)cc1CNc1nccs1 — 2.4-fold lower, 13.9 µg/mL (≈ 57.7 µM)
- O=C(COC(=O)c1ccccc1Oc1ccccc1)NC1CC1 — higher, > 46.7 µg/mL
- Br.CC(C)(C)c1cc(C2=CSC3=NCCN23)cc(C(C)(C)C)c1O — 3.1-fold lower, 10.7 µg/mL
- Cc1ccc(-n2c(C)nc3ccccc3c2=O)c(C)c1 — higher, > 39.6 µg/mL
- CN1CCCC(C(=O)c2ccc(-c3ccccc3)cc2)C1 (stereo not given) — within 1.5-fold, 27.3 µg/mL (≈ 97.7 µM)
- Cc1ccc(C(=O)OCC(=O)N(C)c2ccccc2)cc1C — within 1.5-fold, 41.4 µg/mL (≈ 139 µM)
- O=C(NCCN1CCCCC1)c1cc(Cl)ccc1Cl — within 1.5-fold, 39.8 µg/mL (≈ 132 µM)
- CN(C)c1ccc(C(=O)NCc2ccc3c(c2)OCO3)cc1 — 3.2-fold lower, 10.2 µg/mL (≈ 34.2 µM)
- CC(=O)c1ccc(NC(=O)c2cnsn2)cc1 — within 1.5-fold, 29.1 µg/mL (≈ 118 µM)
- O=C(CCC(=O)OCC(F)(F)C(F)F)Nc1ccccc1F — higher, > 48.8 µg/mL
- CCCCC(=O)N1CC(=O)Nc2ccc(F)cc2C1c1ccc(F)cc1 (stereo not given) — higher, > 53.8 µg/mL
- O=C(NCCCN1CCCC1=O)c1cc2c(s1)CCCCC2 — higher, > 48.1 µg/mL
- COc1cccc(Cn2c(=O)oc3ccccc32)c1 — within 1.5-fold, 25 µg/mL (≈ 97.9 µM)
- Cc1csc(SC(C)C(=O)NCC2CCCO2)n1 (stereo not given) — higher, > 43 µg/mL
- CCn1cc(C(=O)NCCC(=O)NCCO)c(=O)c2cc3c(cc21)OCO3 — higher, > 56.3 µg/mL
- CN(C)c1ccc(C=NCC2COc3ccccc3O2)cc1 (stereo not given) — higher, > 44.5 µg/mL
- Cc1csc(NC(=O)CN2C(=O)COc3ccc(Cl)cc32)n1 — 16-fold lower, 2.1 µg/mL (≈ 6.22 µM)
- COc1cnc(-c2ccccc2)nc1Oc1ccc(Cl)cc1C — lower, < 0.3 µg/mL
- Cc1ccccc1NC(=O)COC(=O)CCSc1ccccc1 — 2.5-fold lower, 13.1 µg/mL (≈ 39.8 µM)
- CS(=O)(=O)N(CC(=O)Nc1ccc(Br)cc1F)C1CCCCC1 — higher, > 61.1 µg/mL
- CC1Cc2ccccc2N1S(=O)(=O)c1cnc(Cl)c(Cl)c1 (stereo not given) — 55-fold lower, 0.6 µg/mL (≈ 1.75 µM)
- Cc1cccnc1NC(=O)CNC(=O)COc1ccccc1 — higher, > 44.9 µg/mL
- Cc1cc(C(=O)CCC(=O)Nc2ncccc2C)c(C)s1 — within 1.5-fold, 26.1 µg/mL (≈ 86.3 µM)
- COc1ccc(Cl)cc1C(=O)NCCN1CCOCC1 — higher, > 44.8 µg/mL
- Cc1ccccc1C(=O)O/N=C(\N)c1ccc([N+](=O)[O-])cc1 — 5.5-fold lower, 6 µg/mL (≈ 20 µM)
- Nc1nc(COC(=O)c2ccc3c(c2)OCCO3)nc(Nc2ccccc2)n1 — 8.4-fold lower, 3.9 µg/mL (≈ 10.3 µM)
- CN1CCN(C(=O)/C=C/c2cccc(Cl)c2)CC1 — higher, > 39.7 µg/mL
- O=c1[nH]c2cccc(F)c2n2cccc12 — 10-fold lower, 3.2 µg/mL (≈ 15.8 µM)
- O=C(Nc1ccc(F)cc1F)N1CCN(CCc2ccccc2)CC1 — within 1.5-fold, 42.7 µg/mL (≈ 124 µM)
- CN1CCN(C(=S)Nc2ccc(S(N)(=O)=O)cc2)CC1 — higher, > 47.2 µg/mL
- CC(C)CCN(C(=S)Nc1cccc(F)c1)C(C)c1cccs1 (stereo not given) — 10-fold lower, 3.2 µg/mL (≈ 9.13 µM)
- COc1cccc2cc(C(=O)N3CCCCCCC3)c(=O)oc12 — higher, > 47.3 µg/mL
- Cc1[nH]c2ccccc2c1C(=O)C(=O)N1CCOCC1 — higher, > 40.8 µg/mL
- CCOC(=O)Cc1csc(NC(=O)c2cccc([N+](=O)[O-])c2)n1 — higher, > 50.3 µg/mL
- COC(=O)/C=C/c1c(C)nc(NCc2ccccc2)nc1Cl — higher, > 47.7 µg/mL
- Cc1ccccc1NC(=O)c1cc2ccccc2o1 — within 1.5-fold, 33.7 µg/mL (≈ 134 µM)
- O=C(OCC(=O)N1CCCCC1)c1cccs1 — higher, > 38 µg/mL
- S=C1NCN(Cc2ccccc2)CN1C1CCCCC1 — 7.3-fold lower, 4.5 µg/mL (≈ 15.5 µM)
- O=C(CSCc1ccc(F)cc1)NCc1cccs1 — within 1.5-fold, 40.2 µg/mL (≈ 136 µM)
- O=C(Nc1ccc(F)cc1)NC1CCCc2ccccc21 (stereo not given) — 47-fold lower, 0.7 µg/mL (≈ 2.46 µM)
- O=C(COC(=O)Cc1ccsc1)Nc1ccc(Cl)cn1 — higher, > 46.6 µg/mL
- O=C(NC(=S)Nc1cccc2ncccc12)c1ccccc1 — 12-fold lower, 2.7 µg/mL (≈ 8.78 µM)
- O=[N+]([O-])c1c(NCCCO)cc(Sc2ccc(Cl)cc2)c2nonc12 — 1.8-fold lower, 18.7 µg/mL (≈ 49.1 µM)
- O=C(COC(=O)c1ccccc1Br)NCC1CCCO1 (stereo not given) — higher, > 51.3 µg/mL
- CN1CCN(CC(=O)Nc2ccccc2Oc2ccccc2)CC1 — higher, > 48.8 µg/mL
- COC(=O)c1sccc1NC(=O)Nc1ccccc1Cl — within 1.5-fold, 25.8 µg/mL (≈ 83 µM)
- CCCCCCn1c(N2CCCC2)nc2c1c(=O)n(C)c(=O)n2C — within 1.5-fold, 48.6 µg/mL (≈ 146 µM)
- COc1cccc2cc(C(=O)NCCN3CCOCC3)oc12 — higher, > 45.7 µg/mL
- COCCNc1c2c(nc3ccccc13)CCC2.Cl — higher, > 41.8 µg/mL
- CCCc1cc(=O)[nH]c(SCC(=O)c2c(N)n(C3CC3)c(=O)[nH]c2=O)n1 — within 1.5-fold, 30.7 µg/mL (≈ 81.3 µM)
- Cc1ccc(-c2ocnc2C(=O)Nc2nc(C)cs2)cc1 — 30-fold lower, 1.1 µg/mL (≈ 3.67 µM)
- COc1ccc(NC(=O)CN2CCc3ccccc3C2)c([N+](=O)[O-])c1 — 18-fold lower, 1.8 µg/mL (≈ 5.27 µM)
- Cc1ccc(C(=O)NCC(=O)NCc2ccc(Cl)cc2)s1 — 4.4-fold lower, 7.4 µg/mL (≈ 22.9 µM)
- CCCc1cc(=O)[nH]c(SCCc2ccccc2)n1 — 1.9-fold lower, 17.4 µg/mL (≈ 63.4 µM)
- O=C(O)/C=C/C(=O)NC1CCCCCCCCCCC1 — higher, > 42.2 µg/mL
